This is an account of results in patent US20200261443A1, “Use of Anti-Ischemic Compounds in Treating Acute-On-Chronic Liver Failure” (Martin Pharmaceuticals Inc., priority 2019, published 2020).

For data set [1], the system named is patients with acute decompensation of cirrhosis and suspected ACLF. In words: Three-arm, randomized, controlled TMZ study in suspected ACLF: mortality. The format is in vivo, human. As to conditions: for Treatment effect on Day 90 mortality: dihydrochloride. The text has this: A three-arm, randomized, controlled study enrolled 133 subjects presenting with acute decompensation of cirrhosis and suspected ACLF.
Patient were divided into two groups by Child Pugh score: Class A or B (<10) and Class C (≥10).
[…] 1. The ACLF3 group was not analyzed because of the small numbers.

Data set [2] in a line: TMZ study in suspected ACLF: white blood cell count, platelet count, creatinine clearance. Format: in vivo, human. Particulars: throughout the study, TMZ versus control groups; dihydrochloride. The text has this: A three-arm, randomized, controlled study enrolled 133 subjects presenting with acute decompensation of cirrhosis and suspected ACLF. Included patients presented with a prothrombin time extended by 4-6 seconds or an international normalized ratio of ≥1.5 or any degree of hepatic encephalopathy as assessed by the West Haven criteria.
In view of the overall disturbed immunlological state and the coagulopathy that is common in ACLF, it is important to asertain whether trimetazidine poses an additional risk to ACLF patients in this regard.

The conditions of data set [3]: cited from earlier work.
Data set [4] concerns liver lipid homeostasis. Particulars: human normal obese subjects; cited from earlier work.
In data set [5] the test system is non-alcoholic steatohepatitis. Particulars: human population; cited from earlier work.
Data set [6] concerns carbon tetrachloride-induced fulminant liver failure. Particulars: animal model; cited from earlier work.
Setting [7] is: Day 30, CP < 10, TMZ arm = TMZ + LOLA + SoC, LOLA arm = LOLA + SoC.

“Also recorded” adds a separate entry of the source. Like-named read-outs stand apart in the source and are kept apart here.

Turning to L-ornithine-L-aspartate [LOLA], the “Alive (number of patients)” value in data set [1] (setting [7]) is reported as 10; in data set [1] (Day 30, CP ≥ 10), 16; in data set [1] (Day 90, CP < 10), 6; in data set [1] (Day 90, CP ≥ 10), 6.

With `COc1ccc(CN2CCNCC2)c(OC)c1OC.Cl.Cl` [TMZ, 1-(2,3,4-trimethoxybenzyl)piperazine dihydrochloride], the “Treatment effect on Day 90 mortality” value in data set [1] (ACLF1 population) is on record as “drug effect was visible; also recorded: Positive results”; in data set [1] (ACLF2 population), “drug effect was visible; also recorded: Positive results”; in data set [1] (ACLF population by EASL-CLIF criteria, worst case imputation) it was “highly statistically significant difference; also recorded: robust effect”; in data set [1] (AD population by EASL-CLIF criteria, worst case imputation) it was “not even a trend towards an effect; also recorded: ineffective”. Further, in data set [1] (Child Pugh Class C (≥10) subjects), the “30- and 90-day mortality” value is “substantial and statistically significant reductions”. Moreover, the “Alive (number of patients)” value came to 9 in data set [1] (setting [7]); 20 in data set [1] (Day 30, CP ≥ 10); 7 in data set [1] (Day 90, CP < 10); 16 in data set [1] (Day 90, CP ≥ 10). In addition, the “Dead (number of patients)” value in data set [1] (setting [7]) is 2; in data set [1] (Day 30, CP ≥ 10) it was 5; in data set [1] (Day 90, CP < 10), 4; in data set [1] (Day 90, CP ≥ 10), 9. Further, the “Dead (percent of patients)” value in data set [1] (setting [7]) is given as 18%; in data set [1] (Day 30, CP ≥ 10), 20%; in data set [1] (Day 90, CP < 10) it was 36%; in data set [1] (Day 90, CP ≥ 10) it was 36%. For the same compound, the “Estimated creatinine clearance rate” value in data set [2] was “does not Affect; also recorded: no difference between the TMZ and control groups”. For the same compound, the “Platelet count / thrombocytopenia” value in data set [2] is “does not Affect; also recorded: not causing thrombocytopenia; also recorded: no difference between the TMZ and control groups”. In data set [2], the “White blood cell levels” value is “does not Affect; also recorded: no meaningful difference between the TMZ and control groups”. Besides, the “Solubility in water / aqueous solution” value in data set [3] (dihydrochloride) is recorded as “highly soluble in water”; in data set [3] (listed as dihydrochloride form of TMZ, dihydrochloride), “very soluble”. Further, the “Effect on liver lipid homeostasis” value in data set [4] was “improve liver lipid homeostasis”. Further, in data set [5], the “Effect on parameters associated with non-alcoholic steatohepatitis” value was “improve certain parameters associated with non-alcoholic steatohepatitis”. Besides, the “Effectiveness in fulminant liver failure” value in data set [6] is reported as “effectiveness”.

In the case of `COc1ccc(CN2CCNCC2)c(OC)c1OC` [neutral form of TMZ, 1-(2,3,4-trimethoxybenzyl)piperazine], in data set [3], the “Solubility in organic environments” value is on record as “soluble in certain organic environments” and the “Solubility in water / aqueous solution” value was “only sparingly soluble in aqueous solution”.
